# Test results taken from patent US11492361B2, “Compounds useful in HIV therapy” (GlaxoSmithKline Intellectual Property Development Limited, priority 2018, dated 2022).
# Where two headings read alike, the source gives them in different places.
# Key:
# [1] = system: cell-associated HIV RNA (HIV gag RNA) in CD4+ T cells; assay: Cell associated HIV RNA (caRNA) assay; type: cell-based, human; conditions: CD4+ T cells treated for 48 hours
# Description: During the productive phase of the viral life cycle, HIV produces a large number of differentially spliced transcripts collectively termed cell-associated HIV RNA (ca-HIV RNA) within some cells that are infected. In HIV-infected individuals on suppressive antiretroviral therapy (ART), changes in the levels of caHIV RNA is an accepted surrogate measure of the efficacy of HIV latency reversal.
# To measure ca-HIVRNA, peripheral blood mononuclear cells (PBMCs) are isolated from leukocytes obtained by continuous-flow leukapheresis. Total CD4^+ T cells were isolated from PBMCs by negative selection using the EasySep Human CD4^+ T cell Enrichment kit (StemCell, Vancouver, Canada) per the manufacturer's recommendations. Resting CD4^+ T cells are isolated by negative selection with an immunomagnetic column as described previously (25) and either cryopreserved immediately or maintained for two days in IMDM medium (Gibco), 10% FBS, 2 μg/mL IL-2 (Peprotech), and antiretrovirals to prevent viral expansion.
# For SMACm treatment, three to five replicates of 2-5×10^6 CD4^+ T cells were treated for 48 hours at 37° C. in 1 mL of RPMI medium 1640, 10% FBS, 10 μg/mL of enfuvirtide (Sigma), and 200 nM rilpivirine. 10 nM phorbol 12-myristate 13-acetate (PMA; Sigma) with 1 μM ionomycin (Sigma) was used as a positive control for LRA activation and 0.2% DMSO vehicle was used as a negative control. Following treatment, cells were lysed and RNA and DNA were co-extracted using an AIIPrep 96 RNA/DNA kit (Qiagen, Valencia, Calif.) per the manufacturer's instructions, adjusting the volume of lysis buffer to 0.6 mL, adding an on-column DNase I treatment (Qiagen) and eluting RNA in 50 μL of water. […]
# HIV absolute HIV gag RNA copies per reaction were determined using an HIV gag gBlock qPCR standard corresponding to the DNA sequence of the qPCR product (5′-[…]-3′ (SEQ ID NO: 4); Integrated DNA Technologies), and copies were normalized to cell counts as determined by bright field microscopy. […]
# [2] = system: cell-associated HIV RNA (HIV gag RNA) in CD4+ T cells; conditions: background statement, primary cells / resting CD4+ T cells; cited from earlier work
# NFKB2 = assay: NFkB2 gene induction; type: cell-based, human; conditions: normal donor CD4 T cells, 24h, read-out: NFkB2 gene induction EC50
# Method: 5×10^5 normal donor CD4 T cells were treated for 24h with serial dilutions of compounds starting at 1.0 μM at 6 fold, 7 places. Total RNA was isolated using the RNEasy Mini kit (Qiagen) per the manufacturer's instructions. The following TaqMan primer probe sets were sourced from Applied Biosystems: Hs00174517_m1 (NFKB2) and Hs02800695 (HPRT1). TaqMan-based real-time PCR (Fast Virus 1-Step Master Mix, Applied Biosystems) was used to amplify host genes of interest. Gene expression was normalized to HPRT1 and comparative threshold cycle (CT) method (ΔΔCT) was used for relative fold change of gene expression as compared to untreated cells. The data was analyzed by QuantStudio3 Real-Time PCR System.
# p100/p52 = conditions: background statement, primary cells; cited from earlier work
# [3] = system: Jurkat HIV-luciferase clones; conditions: background statement; cited from earlier work
Structure (SMILES),caRNA Lowest efficacious concentration observed [1],HIV caRNA induction [2],EC50 (NFKB2) [µM],EC50 (NFKB2; Homo sapiens) [µM],p100-p52 conversion (p100/p52),potency in cell line assays / Jurkat (HIV latency reversal) [3]
"CN[C@H](C)C(=O)N[C@@H](C(=O)N1CCC[C@@H]1C(=O)N[C@@H]1c2ccccc2C[C@@H]1OCC#CC#CCO[C@@H]1Cc2ccccc2[C@H]1NC(=O)[C@H]1CCCN1C(=O)[C@H](NC(=O)[C@@H](C)NC)C1CCCCC1)C1CCCCC1 [AZD5582, reference compound]",10,increase in cell-associated HIV RNA expression,0.028,,,
"CC[C@H](NC(=O)[C@H](C)NC)C(=O)N1C[C@@H](O)C[C@H]1Cc1c(-c2[nH]c3cc(F)ccc3c2C[C@@H]2C[C@H](O)CN2C(=O)[C@H](CC)NC(=O)[C@H](C)NC)[nH]c2cc(F)ccc12 [Birinapant, reference compound]",>1000,,,> 1,,
CN[C@H](C)C(=O)N[C@@H]1CCS[C@@H]2CC(C)(C)C(C(=O)N[C@@H]3CCCc4ccccc43)N2C1=O (stereo partly shown) [SBI-0637142],>1000,did not exhibit activity,18,,did not exhibit activity,potent
